Experimental findings from ChEMBL document CHEMBL6074673, “Discovery of UCB9386: A Potent, Selective, and Brain-Penetrant Nuak1 Inhibitor Suitable for In Vivo Pharmacological Studies” (J Med Chem, 2024) are described below.

Molecules are shown by their SMILES. Converted amounts (≈) assume the structure as drawn. Some results are limits rather than exact numbers.

The nature of series [1]: Dissociation constant, pKa of compound. In kind it is physicochemical.
Series [2] in a line: in vitro. The following applies: human, Caco-2.
Description: Apparent permeability in human Caco-2 cells
A short description of series [3]: Metabolic stability in mouse liver microsomes assessed as intrinsic clearance. The series is classed as ADME, Microsome. On the technique in general: Microsomes from liver hold many membrane-bound enzymes, among them those of drug oxidation.
A short description of series [4]: in vivo. The following applies: mouse, brain, 0.5 mg/kg.
Description: Ratio of unbound drug concentration in brain to plasma of mouse at 0.5 mg/kg
For series [5] the following is noted: human, microsomes.
The nature of series [6]: physchem. The settings on record: buffer, pH 7.4.
Description: Thermodynamic solubility of compound at pH 7.4
Series [7] is described as follows: physchem. The settings on record: buffer, pH 7.4. The source holds these as a separate data set.
Description: Photostability of compound at pH 7.4 under ambient light assessed as compound remaining at 250 uM measured after 24 hrs by 2 LC-MS analysis
Series [8] can be described thus: in vitro. The settings on record: human, hepatocytes.
Description: Metabolic stability in human hepatocytes assessed as intrinsic clearance measured per million cells
Series [9] is described as follows: in vitro. The following applies: mouse, hepatocytes.
Description: Metabolic stability in mouse hepatocytes assessed as intrinsic clearance measured per million cells

Consider `CN1C[C@H]2C[C@@H]1CN2c1nc2cnc(-c3cnc4cccnn34)cc2n(Cc2ccccc2)c1=O`, for which the pKa in series [1] worked out at 8.4. Besides, the Papp in series [2] stood at 12.5 ×10⁻⁶ cm/s. For the same compound, the results for the CLH in series [3] and in series [5] were 58 mL/min/g and 83 mL/min/g, respectively. For the same compound, the Kp uu in series [4] amounted to 0.5. Further, the solubility (thermodynamic) in series [6] was found to be 456 µM (≈ 212 µg/mL).
The compound `O=c1c(N2CC3CC(C2)N3)nc2cnc(-c3cnc4cccnn34)cc2n1Cc1ccccc1` gave a pKa in series [1] of 8.7. For the same compound, the Papp in [2] is 13.2 ×10⁻⁶ cm/s. Also, the figures for the CLH in series [3] and in series [5] were 10 mL/min/g and 22 mL/min/g, respectively. Further, the Kp uu in series [4] was 0.07. In series [6], this compound displayed a thermodynamic solubility of 2 µM (≈ 0.901 µg/mL).
Regarding `O=c1c(N2CCOCC2)nc2cnc(-c3cnc4cccnn34)cc2n1Cc1ccccc1`, the CLH amounted to 52 mL/min/g in series [3] and 29 mL/min/g in series [5].
`O=c1c(C(F)F)nc2cnc(-c3cnc4cccnn34)cc2n1Cc1ccccc1` had an apparent permeability coefficient (Papp) in [2] of 13.9 ×10⁻⁶ cm/s. Moreover, the CLH in series [3] was determined as 11 mL/min/g; in series [5], 4 mL/min/g.
For the compound `O=c1c(N2CCC2)nc2cnc(-c3cnc4cccnn34)cc2n1Cc1ccccc1`, the CLH was 226 mL/min/g in series [3] and 63 mL/min/g in [5].
In the case of `CN1CCN(c2nc3cnc(-c4cnc5cccnn45)cc3n(Cc3ccccc3)c2=O)CC1`, the pKa in [1] was found to be 7.6. In series [2], this compound gave an apparent permeability coefficient (Papp) of 23.6 ×10⁻⁶ cm/s. Further, the CLH in [3] amounted to 227 mL/min/g; in series [5], 73 mL/min/g. The compound further gave a solubility (thermodynamic) in series [6] of less than 1 µM.
Consider `CC1Oc2ccc(-c3cnc4ccccn34)nc2N(Cc2ccccc2)C1=O` (stereo not drawn), for which, in series [7], the fraction remaining at 24 h, 250 µM was determined as 39%.
Take `C[C@H](c1ccccc1)n1c(=O)c(N2CC3CC(C2)N3)nc2cnc(-c3cnc4cccnn34)cc21`: the Papp in [2] stood at 8.3 ×10⁻⁶ cm/s. Further, the hepatocyte CLint was 9 µL/min/1e6 cells in series [8] and 6 µL/min/1e6 cells in series [9]. This compound also yielded a Kp uu in series [4] of 0.026. The same compound registered a CLH in [5] of 21 mL/min/g. Further, the thermodynamic solubility in series [6] was 356 µM (≈ 165 µg/mL).
`O=c1c(N2C[C@H]3C[C@@H]2CN3)nc2cnc(-c3cnc4cccnn34)cc2n1Cc1ccccc1` displayed a pKa in series [1] of 8.8. This compound yielded a Papp in series [2] of 8.6 ×10⁻⁶ cm/s. Further, the CLH in series [3] was 3 mL/min/g; in series [5] it was 16 mL/min/g.
In turn, `O=c1cnc2cnc(-c3cnc4cccnn34)cc2n1Cc1ccccc1` showed a Papp in series [2] of 24.4 ×10⁻⁶ cm/s. In addition, the fraction remaining at 24 h, 250 µM in series [7] was more than 97%. The compound also showed a CLH in series [5] of 34 mL/min/g.
`O=c1c(N2CCNCC2)nc2cnc(-c3cnc4cccnn34)cc2n1Cc1ccccc1` gave a pKa in series [1] of 8.5. Moreover, the Papp in series [2] was 10.7 ×10⁻⁶ cm/s. The CLH came out at 32 mL/min/g in series [3] and 42 mL/min/g in [5]. The thermodynamic solubility in series [6] is less than 1 µM.

The pKa is the pH at which an ionisable group is half protonated. As a reminder, the Papp is the rate of passage across a membrane or cell layer, normalised by area and donor concentration. A low value points to poor permeation. What is called thermodynamic solubility is solubility found after equilibrating the solid with the medium. What is called fraction remaining is what is left of the initial amount, in per cent. A word on the hepatocyte CLint: it is a measure of how fast metabolising enzymes remove a compound, apart from limits set by blood flow. The low end stands for greater metabolic stability, the high end for faster metabolism.
